The values that follow come from patent US7414072B2, “Aryl 5-thio-β-d-glucopyranoside derivatives and therapeutic agents for diabetes containing the same” (Taisho Pharmaceutical Co., Ltd., priority 2002, dated 2008).

As a reminder, the melting point is the temperature of the solid-liquid transition. The compound `Cn1cc(Cc2ccccc2O[C@@H]2S[C@H](CO)[C@@H](O)[C@H](O)[C@H]2O)cn1` [Compound 55] came in with a melting point of 148.5 to 149.5 °C.

In turn, `OCc1ccc(Cc2ccccc2O[C@@H]2S[C@H](CO)[C@@H](O)[C@H](O)[C@H]2O)cc1` [Compound 56, 2′-(4′-hydroxymethylbenzyl)phenyl 5-thio-β-D-glucopyranoside] yielded a melting point of 184 to 186.5 °C.

For `CCc1cccc(Cc2ccccc2O[C@@H]2S[C@H](CO)[C@@H](O)[C@H](O)[C@H]2O)c1` [Compound 57], the melting point lay in the range of 144 to 145 °C.

On to `CCc1ccccc1Cc1ccccc1O[C@@H]1S[C@H](CO)[C@@H](O)[C@H](O)[C@H]1O` [Compound 58], for which the melting point lay within 96 to 101 °C.

As for `OC[C@H]1S[C@@H](Oc2ccc(Cl)cc2Cc2c(F)cccc2Cl)[C@H](O)[C@@H](O)[C@@H]1O` [Compound 59, 2′-(2′-chloro-6′-fluorobenzyl)-4′-chlorophenyl 5-thio-β-D-glucopyranoside], the melting point lay in the range of 183.5 to 185 °C.

For `OC[C@H]1S[C@@H](Oc2ccc(Cl)cc2Cc2ccc(F)cc2F)[C@H](O)[C@@H](O)[C@@H]1O` [Compound 60, 4′-chloro-2′-(2′,4′-difluorobenzyl)phenyl 5-thio-β-D-glucopyranoside], the melting point is 175.5 to 177 °C.

The compound `OC[C@H]1S[C@@H](Oc2ccc(Cl)cc2Cc2cccc(F)c2)[C@H](O)[C@@H](O)[C@@H]1O` [Compound 61, 4′-chloro-2′-(3′-fluorobenzyl)phenyl 5-thio-β-D-glucopyranoside] gave a melting point of 182 to 183 °C.

Regarding `OC[C@H]1S[C@@H](Oc2ccc(Cl)cc2Cc2cccc(Oc3ccccc3)c2)[C@H](O)[C@@H](O)[C@@H]1O` [Compound 62], the melting point lay within 124.5 to 127 °C.

For `CC(C)c1ccc(Cc2cc(Cl)ccc2O[C@@H]2S[C@H](CO)[C@@H](O)[C@H](O)[C@H]2O)cc1` [Compound 63, 4′-chloro-2′-(4′-isopropylbenzyl)phenyl 5-thio-β-D-glucopyranoside], the melting point is 146 to 148.5 °C.

As for `CCc1ccc(Cc2ccc(F)cc2O[C@@H]2S[C@H](CO)[C@@H](O)[C@H](O)[C@H]2O)cc1` [Compound 64, 2′-(4′-ethylbenzyl)-5′-fluorophenyl 5-thio-β-D-glucopyranoside], the melting point is 156 to 157 °C.

Turning to `COc1cc(OC)c(Cc2ccccc2O[C@@H]2S[C@H](CO)[C@@H](O)[C@H](O)[C@H]2O)c(OC)c1` [Compound 65, 2′-(2′,4′,6′-trimethoxybenzyl)phenyl 5-thio-β-D-glucopyranoside], the melting point was in the range of 100 to 105 °C.

`OC[C@H]1S[C@@H](Oc2ccc(Cl)cc2Cc2c(F)c(F)cc(F)c2F)[C@H](O)[C@@H](O)[C@@H]1O` [Compound 66, 4′-chloro-2′-(2′,3′,5′,6′-tetrafluorobenzyl)phenyl 5-thio-β-D-glucopyranoside] displayed a melting point of 204 to 211 °C.

For the compound `OC[C@H]1S[C@@H](Oc2ccc(Cl)cc2Cc2ccc(-c3ccccc3)cc2)[C@H](O)[C@@H](O)[C@@H]1O` [Compound 67, 4′-chloro-2′-(4′-phenylbenzyl)phenyl 5-thio-β-D-glucopyranoside], the melting point was in the range of 187 to 195 °C.

For `OC[C@H]1S[C@@H](Oc2ccc(Cl)cc2Cc2cccc3ccccc23)[C@H](O)[C@@H](O)[C@@H]1O` [Compound 68], the melting point lay within 170 to 175 °C.

As for `OC[C@H]1S[C@@H](Oc2ccc(Cl)cc2Cc2cccc(OC(F)(F)F)c2)[C@H](O)[C@@H](O)[C@@H]1O` [Compound 69, 4′-chloro-2′-(3′-trifluoromethoxybenzyl)phenyl 5-thio-β-D-glucopyranoside], the melting point was in the range of 146 to 148 °C.

Compound `OC[C@H]1S[C@@H](Oc2ccc(Cl)cc2Cc2ccc(Cl)cc2Cl)[C@H](O)[C@@H](O)[C@@H]1O` [Compound 70, 4′-chloro-2′-(2′,4′-dichlorobenzyl)phenyl 5-thio-β-D-glucopyranoside] gave a melting point of 172 to 174 °C.

Consider `OC[C@H]1S[C@@H](Oc2ccc(Cl)cc2Cc2ccc3ccccc3c2)[C@H](O)[C@@H](O)[C@@H]1O` [Compound 71], for which the melting point fell in the range of 192 to 194 °C.

Regarding `CCCCCOc1ccc(Cc2cc(Cl)ccc2O[C@@H]2S[C@H](CO)[C@@H](O)[C@H](O)[C@H]2O)cc1` [Compound 72, 4′-chloro-2′-(4′-pentyloxybenzyl)phenyl 5-thio-β-D-glucopyranoside], the melting point lay in the range of 143 to 144.5 °C.

Compound `OC[C@H]1S[C@@H](Oc2ccccc2Cc2ccc(N3CCOCC3)cc2)[C@H](O)[C@@H](O)[C@@H]1O` [Compound 73, 2′-(4′-morpholinobenzyl)phenyl 5-thio-β-D-glucopyranoside] yielded a melting point of 174 to 176.5 °C.

`OC[C@H]1S[C@@H](Oc2ccccc2Cc2ccc(N3CCCCC3)cc2)[C@H](O)[C@@H](O)[C@@H]1O` [Compound 74, 2′-(4′-piperidinobenzyl)phenyl 5-thio-β-D-glucopyranoside]: the melting point lay within 156.5 to 160 °C.

As for `CC(C)(C)c1ccc(Cc2cc(Cl)ccc2O[C@@H]2S[C@H](CO)[C@@H](O)[C@H](O)[C@H]2O)cc1` [Compound 75, 2′-(4′-t-butylbenzyl)-4′-chlorophenyl 5-thio-β-D-glucopyranoside], the melting point fell in the range of 79 to 82.5 °C.

`OC[C@H]1S[C@@H](Oc2ccc(Cl)cc2Cc2cc(F)cc(C(F)(F)F)c2)[C@H](O)[C@@H](O)[C@@H]1O` [Compound 76, 4′-chloro-2′-(3′-fluoro-5′-trifluoromethylbenzyl)phenyl 5-thio-β-D-glucopyranoside] showed a melting point of 126 to 129 °C.

Consider `CCc1ccc(Cc2ccc(COC(C)=O)cc2O[C@@H]2S[C@H](CO)[C@@H](O)[C@H](O)[C@H]2O)cc1` [Compound 77, 5′-(acetoxymethyl)-2′-(4′-ethylbenzyl)phenyl 5-thio-β-D-glucopyranoside], for which the melting point is 158 to 160 °C.

`OC[C@H]1S[C@@H](Oc2ccc(Cl)cc2Cc2ccccc2CCc2ccccc2)[C@H](O)[C@@H](O)[C@@H]1O` [Compound 78] gave a melting point of 128 to 130 °C.

With `OC[C@H]1S[C@@H](Oc2ccc(Cl)cc2Cc2ccccc2Cc2ccccc2)[C@H](O)[C@@H](O)[C@@H]1O` [Compound 79], the melting point fell in the range of 150.5 to 151.5 °C.

`COc1ccc(Cc2cc(Cl)ccc2O[C@@H]2S[C@H](CO)[C@@H](O)[C@H](O)[C@H]2O)c(OC)c1` [Compound 80, 4′-chloro-2′-(2′,4′-dimethoxybenzyl)phenyl 5-thio-β-D-glucopyranoside] came in with a melting point of 195.5 to 197 °C.

`CCOc1ccccc1Cc1cc(Cl)ccc1O[C@@H]1S[C@H](CO)[C@@H](O)[C@H](O)[C@H]1O` [Compound 81, 4′-chloro-2′-(2′-ethoxybenzyl)phenyl 5-thio-β-D-glucopyranoside] registered a melting point of 196.5 to 198.5 °C.

The compound `Cc1ccccc1Cc1cc(Cl)ccc1O[C@@H]1S[C@H](CO)[C@@H](O)[C@H](O)[C@H]1O` [Compound 82, 4′-chloro-2′-(2′-methylbenzyl)phenyl 5-thio-β-D-glucopyranoside] came in with a melting point of 147 to 149 °C.

Turning to `COc1ccc(CNC(=O)c2c(O)cccc2O[C@@H]2S[C@H](CO)[C@@H](O)[C@H](O)[C@H]2O)cc1` [Compound 84, 3′-hydroxy-2′-(4′-methoxybenzylaminocarbonyl)phenyl 5-thio-β-D-glucopyranoside], the melting point lay within 183 to 185 °C.

`NC(=O)c1ccc(Cc2ccccc2O[C@@H]2S[C@H](CO)[C@@H](O)[C@H](O)[C@H]2O)cc1` [Compound 85, 2′-(4′-carbamoylbenzyl)phenyl 5-thio-β-D-glucopyranoside] showed a melting point of 215.5 to 216 °C.

For the compound `CN(C)C(=O)c1ccc(Cc2ccccc2O[C@@H]2S[C@H](CO)[C@@H](O)[C@H](O)[C@H]2O)cc1` [Compound 86, 2′-(4′-N,N-dimethylaminocarbonylbenzyl)phenyl 5-thio-β-D-glucopyranoside], the melting point was 193.5 to 194 °C.

As for `OC[C@H]1S[C@@H](Oc2ccccc2Cc2ccc(C3CC3)cc2)[C@H](O)[C@@H](O)[C@@H]1O` [Compound 90, 2′-(4′-cyclopropylbenzyl)phenyl 5-thio-β-D-glucopyranoside], the melting point lay in the range of 148 to 148.5 °C.

Turning to `O=C(Nc1ccccc1)c1cc2ccccc2cc1O[C@@H]1S[C@H](CO)[C@@H](O)[C@H](O)[C@H]1O` [Compound 92], the melting point was 200 to 202 °C.
